From patent publication US20240254086A1, “(HETERO)ARYLAMIDE COMPOUND AND PEST CONTROL AGENT” (Nippon Soda Co., Ltd., priority 2021, published 2024)

Columns and labels:
Format in all cases: in vivo
[1] = system: Mythimna separata; assay: Efficacy test against Mythimna separata (maize leaf dip); conditions: 125 ppm by mass, maize leaf pieces immersed 30 seconds, second-instar larvae, 6 days after release, 25° C.
Text: (§1) 5 parts by mass of the compound of the present invention, 93.6 parts by mass of dimethylformamide, and 1.4 parts by mass of polyoxyethylene alkylaryl ether were mixed and dissolved to prepare an emulsion (I) containing 5% of an active ingredient.
Maize leaf pieces were immersed in the diluent solution for 30 seconds. These maize leaf pieces were placed in a petri dish, and five second-instar larvae of Mythimna separata were released to prepare an emulsion-treated section.
Similarly, the solvent control solution was diluted with water at the same ratio as that of the emulsion (I), and maize leaf pieces were immersed therein for 30 seconds. These maize leaf pieces were placed in a petri dish, and five second-instar larvae of Mythimna separata were released to prepare a solvent control section.
The petri dishes were left to stand in a thermostatic chamber at a temperature of 25° C. and a humidity of 60% during the test period. Mortality was evaluated at a time of passage of 6 days from the release of the insects, and the insecticidal rate in the emulsion-treated section was calculated, based on the following expression. At the same time, the food consumptions in the emulsion-treated section and the solvent control section were measured. The test was repeated twice.
Insecticidal rate (%)=(Number of dead insects/Number of test insects)×100

[2] = system: Tetranychus urticae; assay: Efficacy test against Tetranychus urticae (spray on green beans); conditions: 240 h, 125 ppm by mass, sprayed on green beans, adult females, 10 days after spraying, 25° C., read-out: insecticical rate against Tetranychus urticae (mortality of adults)
Protocol: as §1
Seedlings of green beans were grown in 3-inch pots, and 8 adult female Tetranychus urticae from Aomori Prefecture were inoculated onto the first leaves. […] The diluent solution was sprayed on the green beans. The green beans were then placed in a thermostatic chamber with a temperature of 25° C. and humidity of 65%. Mortality of the adult […] was investigated after 10 days had passed from the spraying. The test was repeated twice.

[3] = system: Tetranychus kanzawai; assay: Efficacy test against Tetranychus kanzawai (spray on kidney bean); conditions: 240 h, 125 ppm by mass, sprayed on kidney bean plants, adult females, 10 days after spraying, 25° C., read-out: insecticical rate against Tetranychus kanzawai (mortality of adults)
Text: as §1
The primary leaves of Kidney bean plants were inoculated with 5 adult female Tetranychus kanzawai from Okayama Prefecture. […] This drug was sprayed on the Kidney bean plants and air-dried. The kidney bean seedlings were then placed in a thermostatic chamber with a temperature of 25° C. and humidity of 65%. Mortality of the adult […] was investigated after 10 days had passed from the spraying. The test was repeated twice.

| SMILES | Insecticidal rate against Mythimna separata [1] [%] | mortality at 125 ppm [2] [%] | mortality at 125 ppm [3] [%] |
| --- | --- | --- | --- |
| CCSCCC(CC)(CC)CNC(=O)c1cc(C#N)c(-c2ccc(OC(F)(F)F)cc2OC)nc1C [A-27] | 90 |  |  |
| CCSCCC(CC)(CC)CNC(=O)c1cc(C#N)c(-c2ccc(C(F)(F)F)cc2)nc1C [A-78, 5-Cyano-N-[2,2-diethyl-4-(ethylthio)butyl]-2-methyl-6-[4-(trifluoromethyl)phenyl]nicoti namide] |  | ≥ 90 | ≥ 90 |
| CCSCCC(C)(C)CN(C)C(=O)c1cc(C#N)c(-c2ccc(C(F)(C(F)(F)F)C(F)(F)F)cc2)nc1C [A-105] | 90 |  |  |
| CCSCC(C)(C)CN(C)C(=O)c1cc(C#N)c(-c2ccc(C(F)(F)F)cc2)nc1C [A-146, 5-Cyano-N-[3-(ethylthio)-2,2-dimethylpropyl]-N,2-dimethyl-6-[4-(trifluoromethyl)pheny 1]nicotinamide] |  | ≥ 90 | ≥ 90 |
| CCSCC(C)(C)CNC(=O)c1cc(C#N)c(-c2ccc(C(F)(F)F)cc2)nc1C [A-147, 5-Cyano-N-[3-(ethylthio)-2,2-dimethylpropyl]-2-methyl-6-[4-(trifluoromethyl)phenyl]ni cotinamide] |  | ≥ 90 | ≥ 90 |
| CCSCCC(CC)(CC)CNC(=O)c1cc(C#N)c(-c2ccc(C(F)(F)F)cc2)cc1C(F)(F)F [C-7, 2-Cyano-N-[2,2-diethyl-4-(ethylthio)butyl]-4′,5-bis(trifluoromethyl)-(1,1′-biphenyl)-4-ca rboxamide] |  | ≥ 90 | ≥ 90 |
